The format of data set [1] is in vivo. The settings on record: 30 mg/kg daily as enteric coated tablets, Day 1 vs Day 7 parameters. The method, then: (§1) Pharmacokinetics Study—The protocol was designed to first study a single dose of pyridoxal 5′-phosphate at three different dose levels: […] of body weight. Following evaluation of safety and tolerance, the highest tolerated dose was administered once daily for seven consecutive days. The product was manufactured as enteric-coated tablets each containing 250 mg of pyridoxal 5′-phosphate. The dose was calculated based on the body weight and rounded to the nearest 250 mg.
During the single-dose phase, blood samples were collected prior to dosing and 1, 2, 3, 4, 5, 6, 7, 8, 12, 16 and 24 hours following drug administration. […]
(§2) Pharmacokinetic Analysis—The following pharmacokinetic parameters were calculated: area under the curve from time zero to the last measurable concentration (AUC-T), area under the curve from time zero to infinity (AUC-inf), maximal plasma concentration (Cmax), time of maximal plasma concentration (Tmax), elimination constant (Kel), half-life (T½), mean residence time (MRT), clearance (Cl) and volume of distribution (Vd).
Subjects randomized to the 15 mg/kg group actually received a dose of 14.58±1.11 mg/kg. […] During the multi-dose phase of the study, the number of tablets was calculated prior to the first drug administration and remained constant throughout the duration of the study, regardless of any change in body weight. […]

Data set [2] is described as follows: Single-dose pharmacokinetics study, plasma pyridoxal 5′-phosphate. Particulars: both, human, in vivo. The method, then: as §1
During the single-dose phase, blood samples were collected prior to dosing and 1, 2, 3, 4, 5, 6, 7, 8, 12, 16 and 24 hours following drug administration. During the multi-dose phase, blood samples were drawn each morning prior to dosing and 2 hours post-dose. Following the last dose on day 7, blood samples were drawn after 1, 2, 3, 4, 5, 6, 7, 8, 12, 16 and 24 hours.
Plasma samples were separated and divided into two approximately equal aliquots and stored at −70±10° C. pending shipment (over dry ice) to the analytical laboratory.
as §2
Whenever possible, the area under the plasma concentration-time curve was calculated from time zero to the last measurable concentration (AUC T) using the linear trapezoidal method. AUC-T is expressed as ng·h/ml. AUC-T was also normalized for body weight and expressed as ng·h/ml/kg.
The area under the curve from time zero to infinity (AUC-inf) was calculated as the sum of AUC-T+Clast/Kel where Clast represents the last measurable concentration and Kel the elimination rate constant calculated by linear least squares regression using the data points that best represent the terminal linear phase. AUC-inf is expressed as ng·h/ml. AUC-inf was also normalized for body weight and expressed as ng·h/mg/kg.
Cmax is expressed in ng/ml. Cmax was also normalized for body weight and expressed as ng/ml/kg. […]
The oral clearance was evaluated by dividing the dose (mg/kg) by AUC-inf (ng·h/mL). Clearance is expressed as L/h/kg. The actual clearance was also calculated without normalization for body weight and expressed as L/h.
The volume of distribution is actually the Vdarea calculated by dividing the clearance (L/h/kg) by Kel (h-1). Vd is expressed as L/kg and is not corrected for absolute bioavailability. The actual volume of distribution was also calculated without normalization for body weight and expressed in liters. […]

Take `Cc1ncc(COP(=O)(O)O)c(C=O)c1O` [pyridoxal 5′-phosphate]: the “accumulation upon multiple dosing” value in data set [1] was “does not accumulate upon multiple dosing”. In data set [2] (15 mg/kg), the “mean maximal plasma concentration (mean curve, FIG. 3)” value was 1870 ± 2652 ng/mL and the “time at which mean maximal plasma concentration was reached” value is 6 h. In data set [2] (60 mg/kg), the “mean maximal plasma concentration (mean curve, FIG. 3)” value was 3922 ± 5457 ng/mL and the “time at which mean maximal plasma concentration was reached” value is 4 h.

Values taken from patent US20080213364A1, “Formulations of Pyridoxal-5'-Phosphate and Methods of Preparation” (Medicure International, Inc., priority 2004, published 2008).
